From article PMC7285913, “In vitro hepatic biotransformation of the algal toxin pectenotoxin-2” (Toxicon: X, 2020)

Key:
[1] = ref Alexander et al., 2009, cited from earlier work; for provisional toxicity equivalent factor (TEF): EFSA
primary rat hepatocytes [2] = experiment: In vitro hepatocyte assay under kinetic conditions (PTX-2 disappearance); assay type: in vitro ADME, Wistar rats
Protocol: (§1) Isolated rat liver cells were prepared by a two-step collagenase ex vivo perfusion from male Wistar rats, weighing 250–300 g and kept under routine laboratory conditions with free access to standard laboratory pelleted feed and water ([Seglen, 1976]). The hepatocytes were separated by gradient centrifugation ([Fæste and Moldes-Anaya, 2016]), suspended in PBS, and stored for up to 1 h on ice before use ([Sidelmann et al., 1996], [Gebhardt et al., 2003]). Cell viability was determined microscopically (Leica DMIL microscope; Leica Microsystems GmBH, Wetzlar, Germany), using Trypan blue staining and a Neubauer-counting chamber. About 2.5 × 10^8 living cells per liver were obtained on average, and only preparations with viabilities >92% were used in the metabolism experiments.
(§2) The hepatocyte suspension was diluted with KRB–HEPES buffer pH 7.4 (Krebs-Ringer buffer containing 145 mM NaCl, 5.4 mM KCl, 0.8 mM MgSO4, 0.33 mM Na2HPO4, 0.34 mM KH2PO4, 2 mM CaCl2, and 20 mM HEPES) to a final assay concentration of 2.5 × 10^6 cells/mL. The incubations were performed in capped round-bottom glass tubes in a total assay volume of 5 mL. After pre-incubation for 5 min at 37 °C in a shaking water bath, 5–25 μL of a PTX-2 stock solution containing 1 mg/mL PTX-2 in MeOH were added, resulting in initial concentrations of 1–5 μg/mL PTX-2 in the assay. Aliquots (300 μL) were taken after 0, 2.5, 5, 7.5, 10, 15, 30, and 60 min of incubation and directly transferred into 300 μL ice-cold acetonitrile (ACN) in Eppendorf tubes. Two control samples were included in the experiments, a blank matrix control and a PTX-2 stability control. After centrifuging all samples at 16,000 g for 1 min (5415D centrifuge; Eppendorf AG, Hamburg, Germany), the supernatants were transferred to HPLC vials for analysis by liquid chromatography mass spectrometry (LC-MS) to determine the half-life of PTX-2 in rat hepatocytes.
(§3) LC-MS analyses of centrifuged aliquots from the kinetic assays were performed under reversed phase conditions using a Symmetry C18 column (5 μm, 3.9 × 150 mm) (Waters, Milford, MA, USA) and a binary LC pump (Finnigan Mod. 250) coupled to an Autosampler Plus (Thermo Electron Corporation, San Jose, CA, USA). 5–20 μL samples were injected and eluted using a linear gradient starting with ACN/water (40:60, v/v, both containing 0.1% formic acid and 2 mM ammonium formate) and rising to 100% ACN in 20 min. Isocratic elution with 100% ACN was maintained for 5 min before the eluent was returned to the starting conditions. The flow rate was set to 1 mL/min.

[3] = as above; assay type: in vitro ADME, Wistar rats; settings: male, Wistar, primary rat hepatocytes in suspension, pH 7.4, primary rat hepatocytes, read-out: t½,assay (converted)
Protocol: as §1, §2, §3

mice [4] = settings: single oral doses of 0.3, 1 and 5 mg/kg bw, preliminary data, ref Burgess and Shaw, 2001, Alexander et al., 2009; cited from earlier work
mice [5] = settings: intestinal toxicity in mice; ref Alexander et al., 2009; cited from earlier work
primary rat hepatocytes [6] = experiment: Calculation of the hepatic clearance and maximum bioavailability of PTX-2 in rats from hepatocyte half-life; assay type: in vitro ADME; settings: for CLb: predicted in vivo hepatic blood clearance in rat, well-stirred model, fub = 1; for CLint: scaled from rat hepatocyte assay
Protocol: The in vitro assay clearance (CLassay) of PTX-2 was calculated from the hepatocyte incubations run with first order kinetics (CLassay = Vassay × ln2/t1/2 [Lh^−1]) using the assay volume (Vassay) and the disappearance half-life (t1/2) of the parent compound as determined from the slope of the linear regression from a semi-logarithmic concentration vs. time plot ([Obach, 1999]). […] The in vivo hepatic blood clearance (CLb) was calculated from CLint by applying the non-restricted well-stirred model (CLb = CLint x Q/(CLint + Q) [L (h x kg)^−1]) ([Houston, 1994]), considering the hepatic blood flow in rat (Q ~ 4.2 L (h x kg)^−1) ([Lin and Lu, 1998]). Potential binding to blood components in vivo was not considered in this study and thus the fraction unbound in blood (fub) set to 1. The maximum bioavailability (Fmax) of PTX-2 in rats was estimated (Fmax = Fa x (1 – (CLb/Q) under the assumption of complete absorption from the gastrointestinal tract (Fa = 1) ([De Buck et al., 2007]) and negligible non-hepatic elimination. Fmax was ranked according to the criteria for low (0–10%), moderate (10–30%) and high bioavailability (up to 100%) ([Obach, 1996]).

mice [7] = settings: mouse, ref Suzuki et al., 2006, cited from earlier work
mussels = settings: in mussels, in contrast to PTX-2; ref MacKenzie et al., 2005; cited from earlier work

CC1=C\[C@H](C)C[C@@]2(C)CC[C@@H](O2)[C@@]23CC[C@@](CO)(C[C@@H](O2)[C@H]2O[C@](C)(CC2=O)[C@@H](O)[C@@H]2CC[C@@]4(CCC[C@H](O4)[C@@H](C)C(=O)O[C@@H]4C[C@@H]([C@@]5(O)OCC[C@@H](C)[C@H]5O)O[C@@H]4\C=C\1)O2)O3 [PTX-1, reference compound]
provisional toxicity equivalent factor (TEF) [1]: 1

CC(/C=C/[C@H]1O[C@H]([C@@]2(O)OCC[C@@H](C)[C@H]2O)C[C@H]1O)=C\[C@H](C)C[C@@]1(C)CC[C@H]([C@@]23CC[C@@](C)(C[C@H]([C@H]4O[C@@](C)([C@@H](O)[C@@H]5CCC6(CCC[C@@H]([C@@H](C)C(=O)O)O6)O5)CC4=O)O2)O3)O1 (stereo partly drawn) [PTX-2 seco acid (SA), pectenotoxin-2 seco acid]
relative toxicity ([1]; compared with PTXs given TEF of 1): much less toxic

CC1=CC(C)CC2(C)CCC(O2)C23CCC(C)(CC(O2)C2OC(C)(CC2=O)C(O)C2CCC4(CCCC(O4)C(C)C(=O)OC4CC(C5(O)OCCC(C)C5O)OC4C=C1)O2)O3 (stereo not drawn) [PTX-2, pectenotoxin-2]
PTX-2 remaining unchanged (primary rat hepatocytes [2]; after 30 min of incubation, all concentrations, rat hepatocytes): 17–20% | metabolism in freshly isolated rat hepatocytes (primary rat hepatocytes [2]; freshly isolated rat hepatocytes): rapidly metabolized | half-life at 1.4 μg/mL ([3]; PTX-2 1.4 μg/mL): 11.4 min | half-life at 2.6 μg/mL ([3]; PTX-2 2.6 μg/mL): 9.6 min | half-life at 4.8 μg/mL ([3]; PTX-2 4.8 μg/mL): 12 min | provisional toxicity equivalent factor (TEF) [1]: 1 | acute reference dose (ARfD) ([1]; established by EFSA): 0.8 μg PTX-2 equivalents/kg body weight (bw) | metabolic elimination (mice [4]): considerable metabolic elimination | uptake from the gastrointestinal tract (mice [4]): low uptake from the gastrointestinal tract | lowest-observed-adverse-effect-level (LOAEL) (mice [5]): 250 μg/kg bw | CLb (primary rat hepatocytes [6]; PTX-2 1.4 μg/mL): 47.3 mL/min/kg | CLint (primary rat hepatocytes [6]; PTX-2 1.4 μg/mL): 146 mL/min/kg | CLb (primary rat hepatocytes [6]; PTX-2 2.6 μg/mL): 50 mL/min/kg | CLint (primary rat hepatocytes [6]; PTX-2 2.6 μg/mL): 174 mL/min/kg | CLb (primary rat hepatocytes [6]; PTX-2 4.8 μg/mL): 47 mL/min/kg | CLint (primary rat hepatocytes [6]; PTX-2 4.8 μg/mL): 143 mL/min/kg | compound predicted to remain unmetabolized after the first pass through the liver (primary rat hepatocytes [6]; after oral uptake, rat): up to 32% | predicted hepatic blood clearance (rank) (primary rat hepatocytes [6]; rat, negligible protein binding and unrestricted absorption assumed): moderate

CC1=C\[C@H](C)C[C@@]2(C)CC[C@@H](O2)[C@@]23CC[C@@](C=O)(C[C@@H](O2)[C@H]2O[C@](C)(CC2=O)[C@@H](O)[C@@H]2CC[C@@]4(CCC[C@H](O4)[C@@H](C)C(=O)O[C@@H]4C[C@@H]([C@@]5(O)OCC[C@@H](C)[C@H]5O)O[C@@H]4\C=C\1)O2)O3 [PTX-3]
provisional toxicity equivalent factor (TEF) [1]: 1

CC1=C\[C@H](C)C[C@@]2(C)CC[C@@H](O2)[C@@]23CC[C@@](CO)(C[C@@H](O2)[C@H]2O[C@](C)(CC2=O)[C@@H](O)[C@@H]2CC[C@]4(CCC[C@H](O4)[C@@H](C)C(=O)O[C@@H]4C[C@@H]([C@@]5(O)OCC[C@@H](C)[C@H]5O)O[C@@H]4\C=C\1)O2)O3 [PTX-4]
provisional toxicity equivalent factor (TEF) [1]: 1

CC1=C\[C@H](C)C[C@@]2(C)CC[C@@H](O2)[C@@]23CC[C@@](C(=O)O)(C[C@@H](O2)[C@H]2O[C@](C)(CC2=O)[C@@H](O)[C@@H]2CC[C@@]4(CCC[C@H](O4)[C@@H](C)C(=O)O[C@@H]4C[C@@H]([C@@]5(O)OCC[C@@H](C)[C@H]5O)O[C@@H]4\C=C\1)O2)O3 [PTX-6]
provisional toxicity equivalent factor (TEF) [1]: 1

CC1=C\[C@H](C)C[C@@]2(C)CC[C@@H](O2)[C@@]23CC[C@@](C)(C[C@@H](O2)[C@H]2O[C@](C)(CC2=O)[C@@H](O)[C@@H]2CC[C@@]4(CCC[C@H](O4)[C@@H](C)C(=O)O[C@@H]4[C@H](O)[C@@H]([C@@]5(O)OCC[C@@H](C)[C@H]5O)O[C@@H]4\C=C\1)O2)O3 [PTX-11, 34 S-hydroxypectenotoxin-2]
provisional toxicity equivalent factor (TEF) [1]: 1 | effects after oral application (mice [7]; as much as 5 mg/kg bw p. o.): no effects were detected | LD50 (mice [7]; i. p.): 0.24 mg/kg bw | resistance to enzymatic hydrolysis (mussels): relatively resistant to enzymatic hydrolysis
